Experimental findings from Sander's compilation of Henry's law constants are described below.

The data set in a line: Henry solubility constant Hcp at 298.15 K (mol/(m3 Pa)).
[1] abbreviates: reference: Charles and Destaillats (2005).
Setting [2] is: reference: Hovorka et al. (2019).
The mark [3] stands for this setting: reference: Fenclová et al. (2010).

Several values for one entry are separate records, joined by “and”; a condition that tells them apart may be missing. Identical values can stand only once.

In the case of `Clc1ccc(-c2ccc(Cl)c(Cl)c2)cc1Cl` [3,3',4,4'-tetrachlorobiphenyl], the “Henry solubility constant Hcp” value under setting [1] came to 0.029.
On to `C=CCSCC=C` [3,3'-thiobis-1-propene], for which, for the setting “reference: Lindinger et al. (1998)”, the “Henry solubility constant Hcp” value was determined as 0.0041.
Regarding `FC(F)(F)C(F)(F)C(Cl)Cl` [3,3-dichloro-1,1,1,2,2-pentafluoropropane], the “Henry solubility constant Hcp” value (reference: Kutsuna (2013)) was determined as 9.8e-05.
As to `CC(=O)C(C)(C)C` [3,3-dimethyl-2-butanone], under setting [2], the “Henry solubility constant Hcp” value was found to be 0.043.
Regarding `Cc1ccc(N)cc1C` [3,4-dimethylbenzenamine], the “Henry solubility constant Hcp” value (reference: Jayasinghe et al. (1992)) is 5.3.
`CCCCOCCOCCO` [3,6-dioxa-1-decanol]: the “Henry solubility constant Hcp” value (reference: Kim et al. (2000)) is 1400.
Turning to `C=CC(C)(O)CCC=C(C)C` (stereo unspecified) [3,7-dimethyl-1,6-octadien-3-ol], the “Henry solubility constant Hcp” value is 0.38 (reference: Copolovici and Niinemets (2007)); 0.2 (reference: Leng et al. (2013)).
For `C#CCBr` [3-bromo-1-propyne], under “reference: Yates and Gan (1998)”, the “Henry solubility constant Hcp” value worked out at 0.0088.
Regarding `C#CC=C` [3-buten-1-yne], for the setting “reference: Simpson and Lovell (1962)”, the “Henry solubility constant Hcp” value was determined as 0.00038.
As to `C=CC(C)=O` [3-buten-2-one], the “Henry solubility constant Hcp” value by setting is: (reference: Allen et al. (1998)) 0.21; (reference: Iraci et al. (1999)) 0.4; (reference: Ji and Evans (2007)) 0.26.
In the case of `CCCC(=O)CC` [3-hexanone], the “Henry solubility constant Hcp” value under setting [2] turned out to be 0.076.
Consider `CC(=O)C(C)O` (stereo unspecified) [3-hydroxy-2-butanone], for which the “Henry solubility constant Hcp” value is, setting by setting: (reference: Straver and de Loos (2005)) 0.57; (reference: Wu et al. (2022b)) 3.1.
`CC(C)CCO[N+](=O)[O-]` [3-methyl-1-butanol nitrate]: the “Henry solubility constant Hcp” value (reference: Hauff et al. (1998)) came out at 0.005.
For `CC(C)CCO` [3-methyl-1-butanol], the “Henry solubility constant Hcp” value came out at 0.67 (reference: Ammari and Schroen (2019)); 0.82 under setting [3].
In the case of `CC(C)C(C)O` (stereo unspecified) [3-methyl-2-butanol], the “Henry solubility constant Hcp” value under setting [3] was found to be 0.54.
As to `CC(=O)C(C)C` [3-methyl-2-butanone], the “Henry solubility constant Hcp” value under setting [2] worked out at 0.093.
For `Cc1cccc(C=O)c1` [3-methylbenzaldehyde], the “Henry solubility constant Hcp” value (reference: Wu et al. (2022b)) was determined as 0.3.
In the case of `CC(C)CC(=O)O` [3-methylbutanoic acid], the “Henry solubility constant Hcp” value (reference: Amoore and Buttery (1978)) is 12; the “Henry solubility constant Hcp” value (reference: Khan and Brimblecombe (1992)) amounted to 12; the “Henry solubility constant Hcp” value (reference: Khan et al. (1995)) was 12; the “Henry solubility constant Hcp” value (reference: Kim and Kim (2016)) came out at 27; the “Henry solubility constant Hcp” value (reference: von Hartungen et al. (2004)) amounted to 11.
Turning to `Cc1c[nH]c2ccccc12` [3-methylindole], the “Henry solubility constant Hcp” value (reference: Wetlaufer et al. (1964)) stood at 2.9e-05.
`Cc1cccnc1` [3-methylpyridine]: the “Henry solubility constant Hcp” value (reference: Chaintreau et al. (1995)) was found to be 0.42.
In the case of `CCC(O)CC` [3-pentanol], under setting [3], the “Henry solubility constant Hcp” value turned out to be 0.64.
Consider `CCC(CC)O[N+](=O)[O-]` [3-pentyl nitrate], for which, where the note is “reference: Hauff et al. (1998)”, the “Henry solubility constant Hcp” value came to 0.0038.
Take `Brc1ccc(Oc2ccc(Br)cc2)cc1` [4,4'-dibromodiphenyl ether]: the “Henry solubility constant Hcp” value under setting [1] was determined as 0.073.
The same measure, in the same setting: for `Clc1ccc(-c2ccc(Cl)cc2)cc1` [4,4'-dichlorobiphenyl] the value was 0.035.
Regarding `O=C1OCc2c(Cl)c(Cl)c(Cl)c(Cl)c21` [4,5,6,7-tetrachlorophthalide], for the setting “reference: Kawamoto and Urano (1989)”, the “Henry solubility constant Hcp” value was 18.
Regarding `CC(C)(C)CC(C)(C)c1ccc(O)cc1` [4-(1,1,3,3-tetramethylbutyl)-phenol], the “Henry solubility constant Hcp” value (reference: Xie et al. (2004)) was 2.3.
Regarding `Brc1ccc(Oc2ccccc2)cc1` [4-bromodiphenyl ether], the “Henry solubility constant Hcp” value under setting [1] is 0.058.
As for `COc1cc(C)ccc1O` [4-methyl-2-methoxyphenol], under “reference: Sagebiel et al. (1992)”, the “Henry solubility constant Hcp” value was 7.7 and 7.1.
For the compound `CC(=O)CC(C)C` [4-methyl-2-pentanone], the “Henry solubility constant Hcp” value reads like this: under setting [2], 0.065; (reference: Kim et al. (2000)) 0.039.
For the compound `CCCc1ccc(O)c(OC)c1` [4-propylguaiacol], the “Henry solubility constant Hcp” value (reference: McFall et al. (2020)) was 4.3.
On to `CC(=O)CCC=C(C)C` [6-methyl-5-hepten-2-one], for which the “Henry solubility constant Hcp” value (reference: Wu et al. (2022b)) came to 0.12.
